According to ChEMBL document CHEMBL4033685, “C21-steroidal pregnane sapogenins and their derivatives as anti-inflammatory agents” (Bioorg Med Chem, 2017):
pEC50: −log10 of the molar value. Active and inactive are the calls of the source. No cut-off for these calls is given here.

How the values were obtained:
[1] = biological target: T1, Toll-like receptor 4 (Homo sapiens, UniProt O00206); assay: Antagonist activity at TLR4 in human THP1 cells assessed as inhibition of LPS-stimulated RANTES mRNA level at 10 uM after 16 hrs by RT-PCR method; format: cell-based
[2] = biological target: T1, Toll-like receptor 4; assay: Antagonist activity at TLR4 in human THP1 cells assessed as inhibition of LPS-stimulated IL-6 mRNA level at 10 uM after 16 hrs by RT-PCR method; format: cell-based
[3] = system: AD293; assay: Cytotoxicity against human AD293 cells assessed as reduction in cell viability at 10 uM after 24 hrs by methylene blue dye based spectrophotometric method; details: ad293, 24 h
[4] = biological target: T1, Toll-like receptor 4; assay: Antagonist activity at TLR4 (unknown origin) expressed in human AD293 cells assessed as inhibition of LPS/ATP-stimulated TLR4/NF-kB signaling pathway at 10 uM after 16 hrs by luciferase reporter gene assay; format: cell-based
[5] = biological target: Transcription factor p65 (Homo sapiens) (UniProt Q04206); assay: Inhibition of TNFalpha-stimulated NF-kB p65 phosphorylation (unknown origin) expressed in human AD293 cells at 10 uM after 3 hrs by Western blot analysis; format: cell-based
[6] = system: THP-1; assay: Effect on RelB protein expression in human THP1 cells at 10 uM after 3 hrs by Western blot analysis; format: functional, cell-based
[7] = biological target: Toll-like receptor 2 (Homo sapiens) (UniProt O60603); assay: Antagonist activity at TLR2 in human THP1 cells assessed as inhibition of PGN-stimulated TNFalpha level at 10 uM by bead based immunoassay; format: cell-based
[8] = biological target: T1, Toll-like receptor 4; assay: Antagonist activity at TLR4 in human THP1 cells assessed as inhibition of LPS-stimulated IL-6 level at 10 uM by bead based immunoassay; format: cell-based
[9] = biological target: T1, Toll-like receptor 4; assay: Antagonist activity at TLR4 in human THP1 cells assessed as inhibition of LPS-stimulated NF-kB non-canonical signaling pathway by measuring decrease in RelB expression at 10 uM after 3 hrs by Western blot analysis; format: cell-based
[10] = system: AD293; assay: Upregulation of IKKalpha protein expression in human AD293 cells at 10 uM after 3 hrs by Western blot analysis; format: functional, cell-based
[11] = biological target: Toll-like receptor 2 (Homo sapiens) (UniProt O60603); assay: Antagonist activity at TLR2 in human THP1 cells assessed as inhibition of PGN-stimulated RANTES mRNA level at 10 uM after 16 hrs by RT-PCR method; format: cell-based
[12] = biological target: Toll-like receptor 3 (Homo sapiens) (UniProt O15455); assay: Antagonist activity at TLR3 in human THP1 cells assessed as inhibition of poly IC-stimulated IL-1beta level at 10 uM by bead based immunoassay; format: cell-based
[13] = system: AD293; assay: Upregulation of IKKalpha protein expression in TNFalpha-stimulated human AD293 cells at 10 uM after 3 hrs by Western blot analysis; format: functional, cell-based
[14] = biological target: Toll-like receptor 3 (Homo sapiens) (UniProt O15455); assay: Antagonist activity at TLR3 in human THP1 cells assessed as inhibition of poly IC-stimulated RANTES mRNA level at 10 uM after 16 hrs by RT-PCR method; format: cell-based
[15] = system: THP-1; assay: Upregulation of IKKalpha protein expression in LPS-stimulated human THP1 cells at 10 uM after 3 hrs by Western blot analysis; format: functional, cell-based
[16] = biological target: Transcription factor p65 (Homo sapiens) (UniProt Q04206); assay: Upregulation of NF-kB p65 phosphorylation (unknown origin) expressed in human AD293 cells at 10 uM after 3 hrs by Western blot analysis; format: cell-based
[17] = biological target: T1, Toll-like receptor 4; assay: Antagonist activity at TLR4 (unknown origin) expressed in human AD293 cells assessed as inhibition of LPS/ATP-stimulated TLR4/NF-kB signaling pathway after 16 hrs by luciferase reporter gene assay; format: cell-based
[18] = species: Homo sapiens; assay: Inhibition of TNFalpha-stimulated NF-kB signaling pathway (unknown origin) expressed in human AD293 cells after 4 hrs by luciferase reporter gene assay; format: cell-based
[19] = system: THP-1; assay: Downregulation of IkBalpha protein expression in LPS-stimulated human THP1 cells at 10 uM after 3 hrs by Western blot analysis; format: functional, cell-based
[20] = system: AD293; assay: Cytotoxicity against human AD293 cells assessed as reduction in cell viability after 24 hrs by methylene blue dye based spectrophotometric method; details: ad293, 24 h
[21] = biological target: Transcription factor p65 (Homo sapiens) (UniProt Q04206); assay: Inhibition of TNFalpha-stimulated NF-kB p65 activation (unknown origin) expressed in human AD293 cells assessed as nuclear translocation of p65 at 10 uM after 3 hrs by confocal microscopic method; format: cell-based
[22] = biological target: T1, Toll-like receptor 4; assay: Antagonist activity at TLR4 in human THP1 cells assessed as increase in LPS-stimulated NFkappaB p65 phosphorylation at 10 uM after 3 hrs by Western blot analysis; format: cell-based
[23] = biological target: T1, Toll-like receptor 4; assay: Antagonist activity at TLR4 in human THP1 cells assessed as inhibition of LPS-stimulated NF-kB canonical signaling pathway by measuring decrease in IkBalpha phosphorylation at 10 uM after 3 hrs by Western blot analysis; format: cell-based
[24] = system: THP-1; assay: Upregulation of IKKalpha protein expression in human THP1 cells at 10 uM after 3 hrs by Western blot analysis; format: functional, cell-based
[25] = biological target: Toll-like receptor 3 (Homo sapiens) (UniProt O15455); assay: Antagonist activity at TLR3 in human THP1 cells assessed as inhibition of poly IC-stimulated IL-6 mRNA level at 10 uM after 16 hrs by RT-PCR method; format: cell-based
[26] = biological target: Toll-like receptor 3 (Homo sapiens) (UniProt O15455); assay: Antagonist activity at TLR3 in human THP1 cells assessed as inhibition of poly IC-stimulated TNFalpha level at 10 uM by bead based immunoassay; format: cell-based
[27] = system: AD293; assay: Effect on IkBalpha protein expression in TNFalpha-stimulated human AD293 cells at 10 uM after 3 hrs by Western blot analysis; format: functional, cell-based
[28] = biological target: T1, Toll-like receptor 4; assay: Antagonist activity at TLR4 in human THP1 cells assessed as inhibition of LPS-stimulated IL-1beta level at 10 uM by bead based immunoassay; format: cell-based
[29] = system: THP-1; assay: Downregulation of IkBalpha protein expression in human THP1 cells at 10 uM after 3 hrs by Western blot analysis; format: functional, cell-based
[30] = biological target: T1, Toll-like receptor 4; assay: Antagonist activity at TLR4 in human THP1 cells assessed as inhibition of LPS-stimulated TNFalpha level at 10 uM by bead based immunoassay; format: cell-based
[31] = biological target: Toll-like receptor 2 (Homo sapiens) (UniProt O60603); assay: Antagonist activity at TLR2 in human THP1 cells assessed as inhibition of PGN-stimulated IL-6 mRNA level at 10 uM after 16 hrs by RT-PCR method; format: cell-based
[32] = biological target: Toll-like receptor 2 (Homo sapiens) (UniProt O60603); assay: Antagonist activity at TLR2 in human THP1 cells assessed as inhibition of PGN-stimulated IL-1beta level at 10 uM by bead based immunoassay; format: cell-based
[33] = biological target: T2, NF-kappa-B inhibitor alpha (Homo sapiens) (UniProt P25963); assay: Inhibition of TNFalpha-stimulated IkBalpha phosphorylation in human AD293 cells at 10 uM after 3 hrs by Western blot analysis; format: cell-based
T2 sequence (whole entry): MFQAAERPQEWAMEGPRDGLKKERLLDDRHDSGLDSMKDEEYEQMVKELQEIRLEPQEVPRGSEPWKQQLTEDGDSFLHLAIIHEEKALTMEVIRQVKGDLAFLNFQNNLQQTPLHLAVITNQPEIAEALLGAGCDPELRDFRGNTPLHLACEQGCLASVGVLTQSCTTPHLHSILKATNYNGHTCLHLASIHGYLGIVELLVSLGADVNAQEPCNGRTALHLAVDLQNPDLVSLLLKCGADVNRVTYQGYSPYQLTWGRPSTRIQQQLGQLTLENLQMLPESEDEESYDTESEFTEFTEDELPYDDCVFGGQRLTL

[34] = biological target: T1, Toll-like receptor 4; assay: Antagonist activity at TLR4 in human THP1 cells harboring human TRAF6 assessed as inhibition of LPS-stimulated IL-1beta level at 10 uM by bead based immunoassay; format: cell-based
[35] = biological target: T1, Toll-like receptor 4; assay: Antagonist activity at TLR4 in human THP1 cells harboring human TRAF6 assessed as inhibition of LPS-stimulated IL-6 level at 10 uM by bead based immunoassay; format: cell-based
[36] = biological target: T1, Toll-like receptor 4; assay: Antagonist activity at TLR4 in human THP1 cells harboring human TRAF6 assessed as inhibition of LPS-stimulated TNFalpha level at 10 uM by bead based immunoassay; format: cell-based

Chain of Transcription factor p65 (Homo sapiens) (Q04206 whole entry): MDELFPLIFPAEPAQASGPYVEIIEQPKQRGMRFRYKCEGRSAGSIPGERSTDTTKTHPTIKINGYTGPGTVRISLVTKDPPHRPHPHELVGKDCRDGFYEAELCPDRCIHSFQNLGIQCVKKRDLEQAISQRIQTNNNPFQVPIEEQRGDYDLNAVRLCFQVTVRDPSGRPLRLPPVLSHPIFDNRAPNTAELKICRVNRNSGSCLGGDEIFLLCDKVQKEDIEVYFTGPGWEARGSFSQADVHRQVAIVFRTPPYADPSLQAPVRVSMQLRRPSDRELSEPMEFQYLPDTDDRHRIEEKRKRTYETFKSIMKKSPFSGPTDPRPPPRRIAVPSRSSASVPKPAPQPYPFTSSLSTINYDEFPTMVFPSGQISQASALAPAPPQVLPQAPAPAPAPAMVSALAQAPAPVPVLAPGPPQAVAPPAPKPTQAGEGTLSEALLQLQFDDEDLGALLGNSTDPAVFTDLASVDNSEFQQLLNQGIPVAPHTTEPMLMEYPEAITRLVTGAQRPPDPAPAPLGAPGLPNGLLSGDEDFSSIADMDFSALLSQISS
Chain of Toll-like receptor 3 (Homo sapiens) (O15455 whole entry): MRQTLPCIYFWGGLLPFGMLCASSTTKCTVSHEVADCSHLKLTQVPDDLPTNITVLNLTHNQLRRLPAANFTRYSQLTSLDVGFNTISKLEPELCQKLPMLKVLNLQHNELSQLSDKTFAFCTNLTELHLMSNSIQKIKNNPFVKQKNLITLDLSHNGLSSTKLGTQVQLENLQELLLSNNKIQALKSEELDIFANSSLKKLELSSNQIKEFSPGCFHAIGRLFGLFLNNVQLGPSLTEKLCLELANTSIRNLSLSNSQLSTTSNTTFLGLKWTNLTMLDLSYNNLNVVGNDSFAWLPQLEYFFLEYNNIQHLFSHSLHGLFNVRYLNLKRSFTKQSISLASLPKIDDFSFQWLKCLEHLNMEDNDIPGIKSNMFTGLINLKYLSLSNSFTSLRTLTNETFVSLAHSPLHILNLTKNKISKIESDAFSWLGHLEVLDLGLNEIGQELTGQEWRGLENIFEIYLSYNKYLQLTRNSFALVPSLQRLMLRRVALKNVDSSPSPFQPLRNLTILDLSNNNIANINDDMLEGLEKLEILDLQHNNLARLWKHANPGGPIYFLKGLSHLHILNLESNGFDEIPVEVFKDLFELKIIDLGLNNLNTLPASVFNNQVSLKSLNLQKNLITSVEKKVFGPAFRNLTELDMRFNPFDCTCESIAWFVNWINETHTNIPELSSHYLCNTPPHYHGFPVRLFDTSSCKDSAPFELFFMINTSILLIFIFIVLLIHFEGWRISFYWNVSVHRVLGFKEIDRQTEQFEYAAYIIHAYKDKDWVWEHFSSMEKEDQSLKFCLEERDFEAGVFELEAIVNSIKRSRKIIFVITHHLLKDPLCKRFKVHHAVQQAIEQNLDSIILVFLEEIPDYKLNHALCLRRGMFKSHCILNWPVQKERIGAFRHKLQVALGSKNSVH
Chain of Toll-like receptor 2 (Homo sapiens) (O60603 whole entry): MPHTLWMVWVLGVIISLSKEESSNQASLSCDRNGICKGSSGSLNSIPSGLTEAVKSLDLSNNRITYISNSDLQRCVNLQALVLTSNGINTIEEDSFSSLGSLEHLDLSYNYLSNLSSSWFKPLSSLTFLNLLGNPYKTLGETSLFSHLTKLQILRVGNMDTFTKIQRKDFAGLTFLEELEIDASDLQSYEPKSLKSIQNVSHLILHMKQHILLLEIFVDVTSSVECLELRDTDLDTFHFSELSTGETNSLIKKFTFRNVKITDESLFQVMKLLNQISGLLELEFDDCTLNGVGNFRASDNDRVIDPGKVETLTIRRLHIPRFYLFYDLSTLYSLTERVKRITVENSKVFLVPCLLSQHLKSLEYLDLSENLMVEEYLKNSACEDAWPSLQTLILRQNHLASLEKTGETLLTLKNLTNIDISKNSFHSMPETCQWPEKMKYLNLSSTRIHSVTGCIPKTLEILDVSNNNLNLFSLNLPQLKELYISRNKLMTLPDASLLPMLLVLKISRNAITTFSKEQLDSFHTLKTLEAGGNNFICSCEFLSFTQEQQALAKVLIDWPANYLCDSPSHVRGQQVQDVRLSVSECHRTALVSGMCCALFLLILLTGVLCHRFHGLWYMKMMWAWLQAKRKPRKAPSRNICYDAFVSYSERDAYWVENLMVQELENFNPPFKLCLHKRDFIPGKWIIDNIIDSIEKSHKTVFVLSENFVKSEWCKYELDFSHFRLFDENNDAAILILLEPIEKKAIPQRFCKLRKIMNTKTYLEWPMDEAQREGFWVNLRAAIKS
T1 sequence (O00206 whole entry): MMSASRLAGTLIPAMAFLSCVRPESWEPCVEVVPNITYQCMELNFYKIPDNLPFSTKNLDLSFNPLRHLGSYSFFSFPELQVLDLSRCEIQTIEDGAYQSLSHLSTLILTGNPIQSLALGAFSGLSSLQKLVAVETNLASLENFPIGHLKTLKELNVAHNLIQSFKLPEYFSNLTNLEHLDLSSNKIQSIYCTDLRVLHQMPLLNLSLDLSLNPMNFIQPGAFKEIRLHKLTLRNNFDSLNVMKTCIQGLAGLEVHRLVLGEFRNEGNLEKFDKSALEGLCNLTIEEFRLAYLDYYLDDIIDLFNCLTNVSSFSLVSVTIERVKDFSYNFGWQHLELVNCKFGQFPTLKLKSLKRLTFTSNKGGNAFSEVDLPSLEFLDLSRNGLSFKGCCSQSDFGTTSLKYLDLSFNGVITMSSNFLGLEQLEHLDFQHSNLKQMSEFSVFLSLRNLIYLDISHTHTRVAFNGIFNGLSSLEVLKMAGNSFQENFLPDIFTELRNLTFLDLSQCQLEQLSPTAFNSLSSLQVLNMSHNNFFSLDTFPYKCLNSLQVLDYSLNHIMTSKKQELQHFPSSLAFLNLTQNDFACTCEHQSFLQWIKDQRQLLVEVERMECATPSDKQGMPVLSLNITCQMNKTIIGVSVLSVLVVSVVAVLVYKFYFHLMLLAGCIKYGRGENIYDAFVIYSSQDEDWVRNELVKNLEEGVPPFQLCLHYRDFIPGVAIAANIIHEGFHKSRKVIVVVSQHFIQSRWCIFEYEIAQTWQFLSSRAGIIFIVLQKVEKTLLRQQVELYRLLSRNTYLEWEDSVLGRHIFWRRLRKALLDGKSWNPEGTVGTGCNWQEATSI

SMILES: CC(=O)O[C@H]1CC[C@@]2(C)C(=CC[C@]3(O)[C@@H]2C[C@@H](OC(=O)c2ccc(O)cc2)[C@@]2(C)[C@]3(O)CC[C@@]2(O)C(C)=O)C1
- inhibition [1]: inactive
- inhibition [2]: inactive

SMILES: CC(=O)[C@]1(O)CC[C@@]2(O)[C@]1(C)[C@H](OC(=O)/C=C(\C)C(C)C)C[C@@H]1[C@@]3(C)CC[C@H](OC(=O)/C=C/c4ccccc4)CC3=CC[C@]12O
- inhibition [1]: inactive
- inhibition [2]: inactive

SMILES: CC(=O)[C@]1(O)CC[C@@]2(O)[C@]1(C)[C@H](OC(=O)/C=C(\C)C(C)C)C[C@@H]1[C@@]3(C)CC[C@H](OC(=O)c4ccc(Cl)nc4)CC3=CC[C@]12O
- inhibition [1]: inactive
- inhibition [2]: inactive

SMILES: CC(=O)[C@]1(O)CC[C@@]2(O)[C@]1(C)[C@H](OC(=O)c1ccccc1)C[C@@H]1[C@@]3(C)CC[C@H](O)CC3=CC[C@]12O
- inhibition [1]: inactive
- inhibition [2]: inactive

SMILES: CC(=O)[C@]1(OC(=O)c2ccccc2I)CC[C@@]2(O)[C@]1(C)[C@H](OC(=O)c1ccc(O)cc1)C[C@@H]1[C@@]3(C)CC[C@H](OC(=O)c4ccccc4I)CC3=CC[C@]12O
- inhibition [1]: inactive
- Activity [3]: Toxic
- inhibition [2]: inactive
- inhibition [4]: inactive

SMILES: C[C@@H](OC(=O)c1ccccc1O)[C@]1(O)CC[C@@]2(O)[C@]1(C)[C@H](OC(=O)/C=C/c1ccccc1)C[C@@H]1[C@@]3(C)CC[C@H](O)CC3=CC[C@]12O
- inhibition [5]: inactive
- Activity [6]: Active
- inhibition [7]: Active
- inhibition [8]: Active
- inhibition [9]: Active
- Activity [10]: Active
- inhibition [11]: Active
- inhibition [12]: Active
- inhibition [1]: Active
- Activity [13]: Active
- inhibition [14]: Active
- Activity [15]: Active
- Activity [16]: Active
- pEC50 [17]: 5.31
- EC10 [18]: > 10 µM
- Activity [19]: Active
- CC10 [20]: > 10 µM
- inhibition [21]: inactive
- inhibition [22]: inactive
- inhibition [23]: inactive
- Activity [24]: Active
- inhibition [25]: Active
- inhibition [26]: Active
- Activity [27]: inactive
- inhibition [28]: Active
- Activity [29]: Active
- inhibition [30]: Active
- inhibition [31]: Active
- inhibition [32]: Active
- inhibition [2]: Active
- inhibition [33]: inactive
- inhibition [34]: inactive
- inhibition [35]: inactive
- inhibition [36]: inactive
